Assay results: patent publication US20060069132A1, “Azolecarboxamide herbicides” (priority 2004, published 2006)

Key:
barnyardgrass [1] = assay: Test A pre-/postemergence herbicide test; assay type: in vivo, Echinochloa crus-galli
Outline: (§1)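 Plants are held in greenhouse about ten days after treatment, then compared with untreated controls and scored 0 (no effect) to 100 (complete control). Preemergence dosing is a directed soil spray on sown sandy loam; postemergence dosing is spray to runoff at 2–10 cm height.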

large crabgrass [2] = assay: Test A pre-/postemergence herbicide test; assay type: in vivo, Digitaria sanguinalis
Outline: as §1

giant foxtail [3] = assay: Test A pre-/postemergence herbicide test; assay type: in vivo, Setaria faberi
Outline: as §1

morningglory [4] = assay: Test A pre-/postemergence herbicide test; assay type: in vivo, Ipomoea spp.
Outline: as §1

redroot pigweed = assay: Test A pre-/postemergence herbicide test; assay type: in vivo, Amaranthus retroflexus
Outline: as §1

velvetleaf [5] = assay: Test A pre-/postemergence herbicide test; assay type: in vivo, Abutilon theophrasti
Outline: as §1

barnyardgrass [6] = assay: Test B pre-/postemergence herbicide test; assay type: in vivo, Echinochloa crus-galli; conditions: for Plant response rating, Barnyardgrass: preemergence; for Barnyardgrass plant response rating: postemergence, visual rating, scale 0 (no effect) to 100 (complete control)
Outline: (§2)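 Species tested were Echinochloa crus-galli, Ipomoea coccinea, Xanthium strumarium and Oryza sativa, treated both before emergence and at the 1- to 4-leaf stage; rice and barnyardgrass were also tested under flooding at 2 leaves. Greenhouse incubation lasted 13–15 days before visual 0–100 scoring.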

Surinam grass = assay: Test B pre-/postemergence herbicide test; assay type: in vivo, Urochloa decumbens; conditions: for Plant response rating, Surinam Grass: preemergence; for Surinam Grass plant response rating: postemergence, visual rating, scale 0 (no effect) to 100 (complete control)
Outline: (§3)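 Greenhouse pot assay with simultaneous preemergence (treated seed) and postemergence (2–18 cm seedlings) applications of surfactant-containing, non-phytotoxic solvent formulations. Response scored visually 13–15 days later on a 0–100 scale, 100 meaning complete control.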

cocklebur = assay: Test B pre-/postemergence herbicide test; assay type: in vivo, Xanthium strumarium; conditions: for Plant response rating, Cocklebur: preemergence; for Cocklebur plant response rating: postemergence, visual rating, scale 0 (no effect) to 100 (complete control)
Outline: as §2

corn = assay: Test B pre-/postemergence herbicide test; assay type: in vivo, Zea mays; conditions: for Plant response rating, Corn: preemergence; for Corn plant response rating: postemergence, visual rating, scale 0 (no effect) to 100 (complete control)
Outline: as §3

large crabgrass [7] = assay: Test B pre-/postemergence herbicide test; assay type: in vivo, Digitaria sanguinalis; conditions: for Plant response rating, Crabgrass, Large: preemergence; for Crabgrass, Large plant response rating: postemergence, visual rating, scale 0 (no effect) to 100 (complete control)
Outline: as §3

giant foxtail [8] = assay: Test B pre-/postemergence herbicide test; assay type: in vivo, Setaria faberi; conditions: for Plant response rating, Foxtail, Giant: preemergence; for Foxtail, Giant plant response rating: postemergence, visual rating, scale 0 (no effect) to 100 (complete control)
Outline: as §3

lambsquarters = assay: Test B pre-/postemergence herbicide test; assay type: in vivo, Chenopodium album; conditions: for Plant response rating, Lambsquarters: preemergence; for Lambsquarters plant response rating: postemergence, visual rating, scale 0 (no effect) to 100 (complete control)
Outline: as §3

morningglory [9] = assay: Test B pre-/postemergence herbicide test; assay type: in vivo, Ipomoea coccinea; conditions: for Plant response rating, Morningglory: preemergence; for Morningglory plant response rating: postemergence, visual rating, scale 0 (no effect) to 100 (complete control)
Outline: as §2

pigweed = assay: Test B pre-/postemergence herbicide test; assay type: in vivo, Amaranthus retroflexus; conditions: for Plant response rating, Pigweed: preemergence; for Pigweed plant response rating: postemergence, visual rating, scale 0 (no effect) to 100 (complete control)
Outline: as §3

rice [10] = assay: Test B pre-/postemergence herbicide test; assay type: in vivo, Oryza sativa; conditions: preemergence
Outline: as §2

velvetleaf [11] = assay: Test B pre-/postemergence herbicide test; assay type: in vivo, Abutilon theophrasti; conditions: for Plant response rating, Velvetleaf: preemergence; for Velvetleaf plant response rating: postemergence, visual rating, scale 0 (no effect) to 100 (complete control)
Outline: as §3

blackgrass = assay: Test B postemergence herbicide test; assay type: in vivo, Alopecurus myosuroides; conditions: postemergence, visual rating, scale 0 (no effect) to 100 (complete control)
Outline: (§4)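 Plants grow to 1- to 4-leaf stage (2–18 cm) for postemergence spraying, or to 2-leaf stage for the paddy test. Formulated compound is applied. Greenhouse holding lasts 13–15 days. Response is scored visually relative to controls, 0 no effect to 100 complete control; a dash means no result.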

wheat = assay: Test B postemergence herbicide test; assay type: in vivo, Triticum aestivum; set-up: key to Wheat plant response rating: 0 = no effect, 100 = complete control; conditions: postemergence, 500 g ai/ha; visual rating, scale 0 (no effect) to 100 (complete control)
Outline: as §4

wild oat = assay: Test B postemergence herbicide test; assay type: in vivo, Avena fatua; conditions: postemergence, visual rating, scale 0 (no effect) to 100 (complete control)
Outline: as §4

rice [12] = assay: Test B flooded paddy test; assay type: in vivo, Oryza sativa; conditions: 1000 g ai/ha, visual rating, scale 0 to 100 (0 no effect, 100 complete control), 13 to 15 days
Outline: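 Greenhouse test; postemergence application to plants at 1–4 leaves (2–18 cm); paddy species at 2 leaves; evaluated visually vs controls at 13–15 days; scale 0–100 (100 = complete control).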

[13] = system: small flower umbrella sedge; assay: Test B flooded paddy test; assay type: in vivo, Cyperus difformis; conditions: 1000 g ai/ha, visual rating, scale 0 to 100 (0 no effect, 100 complete control), 13 to 15 days
Outline: as §4

ducksalad = assay: Test B flooded paddy test; assay type: in vivo, Heteranthera limosa; conditions: 1000 g ai/ha, visual rating, scale 0 to 100 (0 no effect, 100 complete control), 13 to 15 days
Outline: as §4

barnyardgrass [14] = assay: Test B flooded paddy test; assay type: in vivo, Echinochloa crus-galli; conditions: 1000 g ai/ha, visual rating, scale 0 to 100 (0 no effect, 100 complete control), 13 to 15 days
Outline: as §4

[15] = Postemergence, 500 g ai/ha, 0 to 100 scale, 0 no effect, 100 complete control
[16] = Postemergence, 2000 g ai/ha, 0 to 100 scale, 0 no effect, 100 complete control
[17] = Preemergence, 500 g ai/ha, visual rating, 0 to 100 scale (0 no effect, 100 complete control)
[18] = Preemergence, 2000 g ai/ha, visual rating, 0 to 100 scale (0 no effect, 100 complete control)
[19] = preemergence, 500 g ai/ha, visual injury, 0 to 100 scale (0 no effect, 100 complete control)
[20] = 500 g ai/ha, visual rating 0-100, 0 no effect, 100 complete control
[21] = 125 g ai/ha, 0 to 100 scale, 0 is no effect, 100 is complete control

CCn1nc(C(C)(C)C)cc1C(=O)Nc1nccc(OC)n1 [Compound 165]
20: Pigweed plant response rating (redroot pigweed; [18]) | Plant response rating, Velvetleaf (velvetleaf [5]; [16])
0: Barnyardgrass plant response rating (barnyardgrass [1]; [15]) | Plant response rating, Barnyardgrass (barnyardgrass [1]; [16]) | Barnyardgrass plant response rating (barnyardgrass [1]; [17]) | Barnyardgrass plant response rating (barnyardgrass [1]; [18]) | Crabgrass, Large plant response rating (large crabgrass [2]; [15]) | Plant response rating, Crabgrass, Large (large crabgrass [2]; [16]) | Crabgrass, Large plant response rating (large crabgrass [2]; [17]) | Crabgrass, Large plant response rating (large crabgrass [2]; [18]) | Foxtail, Giant plant response rating (giant foxtail [3]; [15]) | Plant response rating, Foxtail, Giant (giant foxtail [3]; [16]) | Foxtail, Giant plant response rating (giant foxtail [3]; [17]) | Foxtail, Giant plant response rating (giant foxtail [3]; [18]) | Morningglory plant response rating (morningglory [4]; [17]) | Morningglory plant response rating (morningglory [4]; [18]) | Pigweed plant response rating (redroot pigweed; [15]) | Pigweed plant response rating (redroot pigweed; [19]) | Velvetleaf plant response rating (velvetleaf [5]; [19]) | Plant response rating, Barnyardgrass (barnyardgrass [6]; [20]) | Barnyardgrass plant response rating (barnyardgrass [6]; 125 g ai/ha) | Barnyardgrass plant response rating (barnyardgrass [6]; 500 g ai/ha) | Plant response rating, Barnyardgrass (barnyardgrass [6]; [21]) | Plant response rating, Surinam Grass (Surinam grass; [20]) | Surinam Grass plant response rating (Surinam grass; 125 g ai/ha) | Surinam Grass plant response rating (Surinam grass; 500 g ai/ha) | Plant response rating, Surinam Grass (Surinam grass; [21]) | Plant response rating, Cocklebur (cocklebur; [20]) | Cocklebur plant response rating (cocklebur; 125 g ai/ha) | Cocklebur plant response rating (cocklebur; 500 g ai/ha) | Plant response rating, Cocklebur (cocklebur; [21]) | Plant response rating, Corn (corn; [20]) | Corn plant response rating (corn; 125 g ai/ha) | Corn plant response rating (corn; 500 g ai/ha) | Plant response rating, Corn (corn; [21]) | Plant response rating, Crabgrass, Large (large crabgrass [7]; [20]) | Crabgrass, Large plant response rating (large crabgrass [7]; 125 g ai/ha) | Crabgrass, Large plant response rating (large crabgrass [7]; 500 g ai/ha) | Plant response rating, Crabgrass, Large (large crabgrass [7]; [21]) | Plant response rating, Foxtail, Giant (giant foxtail [8]; [20]) | Foxtail, Giant plant response rating (giant foxtail [8]; 125 g ai/ha) | Foxtail, Giant plant response rating (giant foxtail [8]; 500 g ai/ha) | Plant response rating, Foxtail, Giant (giant foxtail [8]; [21]) | Plant response rating, Lambsquarters (lambsquarters; [20]) | Lambsquarters plant response rating (lambsquarters; 125 g ai/ha) | Lambsquarters plant response rating (lambsquarters; 500 g ai/ha) | Plant response rating, Lambsquarters (lambsquarters; [21]) | Plant response rating, Morningglory (morningglory [9]; [20]) | Morningglory plant response rating (morningglory [9]; 125 g ai/ha) | Morningglory plant response rating (morningglory [9]; 500 g ai/ha) | Plant response rating, Morningglory (morningglory [9]; [21]) | Plant response rating, Pigweed (pigweed; [20]) | Pigweed plant response rating (pigweed; 125 g ai/ha) | Pigweed plant response rating (pigweed; 500 g ai/ha) | Plant response rating, Pigweed (pigweed; [21]) | Plant response rating, Rice (rice [10]; [20]) | Plant response rating, Rice (rice [10]; [21]) | Plant response rating, Velvetleaf (velvetleaf [11]; [20]) | Velvetleaf plant response rating (velvetleaf [11]; 125 g ai/ha) | Velvetleaf plant response rating (velvetleaf [11]; 500 g ai/ha) | Plant response rating, Velvetleaf (velvetleaf [11]; [21]) | Blackgrass plant response rating (blackgrass; 125 g ai/ha) | Blackgrass plant response rating (blackgrass; 500 g ai/ha) | Wheat plant response rating (wheat) | Oat, Wild plant response rating (wild oat; 125 g ai/ha) | Oat, Wild plant response rating (wild oat; 500 g ai/ha) | Rice plant response rating (rice [12]) | Sedge, Umbrella plant response rating [13] | Ducksalad plant response rating (ducksalad) | Barnyardgrass plant response rating (barnyardgrass [14])
10: Velvetleaf plant response rating (velvetleaf [5]; [15])
5: Morningglory plant response rating (morningglory [4]; [15]) | Plant response rating, Morningglory (morningglory [4]; [16]) | Plant response rating, Pigweed (redroot pigweed; [16]) | Velvetleaf plant response rating (velvetleaf [5]; [18])
